Source: the NIST ThermoML archive (doi:10.1016/j.fluid.2004.07.015)
± gives the expanded uncertainty stated by the source.

Conditions: 101.33 kPa, Liquid

CCCCn1cc[n+](C)c1.F[P-](F)(F)(F)(F)F [1-butyl-3-methylimidazolium hexafluorophosphate]
Conditions | mass density [kg/m3]
289.1 K | 1372.6 ± 3
291.1 K | 1370.8 ± 2.9
293.1 K | 1369.1 ± 2.9
295.1 K | 1367.4 ± 2.9
297.05 K | 1365.8 ± 2.9
299.1 K | 1364.1 ± 2.9
301.05 K | 1362.4 ± 2.9
303.15 K | 1360.6 ± 2.9
305.1 K | 1359 ± 2.9
307.15 K | 1357.3 ± 2.9
309.15 K | 1355.6 ± 2.9
